Experimental data: patent US11524977B2, “Ultrasound-assisted simulated digestion method of milk protein active peptide and application thereof in health foods” (JIANGSU UNIVERSITY, priority 2017, dated 2022)
“And” between values parts separate entries of the source, which are not always exact repeats. Equal entries are not always repeated.

Tests used:
[1] = literature report, in words; cited from earlier work
[2] = test system: VCAM-1; details: synthesized peptide 100 μM
Method: (§1) The peptides were subjected to study the anti-inflammatory activity; the levels of intercellular adhesion molecule (ICAM-1) and vascular cell adhesion molecule (VCAM-1) expressed in EA.hy926 cells were detected by Western blot as inflammatory biomarkers. The EA, hy926 cells with passage number <12 were grown in 48-well plates. The cells reaching 80-90% confluence were treated with various concentrations (2.5 mg/mL of hydrolysates and digests, 0.2 mM and 3.0 mM of synthetic peptides) of the samples for 18 h. Then the cells were stimulated with TNF-α at 10 ng/mL and incubated for an additional 6 h in order to induce inflammation.
(§2) After the treatment period, the culture medium of the EA. hy926 cells was discarded and a boiling Laemmle buffer containing 0.2% TritonX-100 and 50 μM dithiothreitol was added to lysate the cells. The cell lysates were then run on 9% sodium dodecyl sulfate polyacrylamide gel electrophoresis. The gels were transferred onto nitrocellulose membranes, and immunoblotted with anti-ICAM-1/anti-VCAM-1 antibodies. The concentration of antibody to α-tubulin used was 0.4 μg/mL, while that for all other antibodies was 0.1 μg/mL. The protein bands were scanned using Licor Odyssey BioImager (Licor Biosciences, Lincoln, NB, USA) and quantified by densitometry using Image Studio Lite 5.2.

[3] = test system: ICAM-1; details: synthesized peptide 100 μM
Method: as §1, §2

AASDISLLDAQSAPLR [peptide obtained by enzymolysis of β-LG]
antibacterial activity [1]: strong antibacterial activity

IPAVFK: peptide obtained by enzymolysis of β-LG (UniProt P02754 94-99, looked up, fragment)
antibacterial activity [1]: strong antibacterial activity

Leu-Gln-Tyr [LQY]
VCAM-1 (TNF-α) [2]: 33.7 TNF-α and 33.7 ± 6.9 TNF-α
ICAM-1 (%TNF-α) [3]: 48.2 %TNF-α and 48.2 ± 6.3 %TNF-α

Phe-Tyr-Gln-Ala [FYQA]
VCAM-1 (TNF-α) [2]: 41.3 TNF-α and 41.3 ± 10.6 TNF-α
ICAM-1 (%TNF-α) [3]: 56.6 %TNF-α and 56.6 ± 9.0 %TNF-α

VLVLDTDYK [peptide obtained by enzymolysis of β-LG]
antibacterial activity [1]: strong antibacterial activity
